# Measurements taken from publication PMC3433420 (PLoS ONE, 2012).
# Residues, ends and D or L forms follow the SMILES beside them.
# Key:
# Assay in all cases: In-house protein microarrays (with or without 5 mM DTT), protein named per line
# Format in all cases: binding
# [1] = target: T1, SH2 and PTB domains (Homo sapiens, UniProt O00459); settings: array fabrication # 39329
# T1 construct: thioredoxin; made in house; host or cells: BL21(DE3)pLysS E. coli
# Experimental: (§1) 300 pL of purified recombinant proteins and a thioredoxin tag control were spotted at a concentration of ∼40 µM in duplicate onto aldehyde-coated microscope slides (Erie Scientific Company, Portsmouth, NH) using a Nano-Plotter (NP) 2.1/E noncontact microarrayer (GeSiM, Munich, Germany). 16 identical microarrays per slide were printed in a 2×8 (column by row) format with distances of 9 mm between individual arrays; each array consisted of a 14×14 configuration of spots 400 µm apart. Following printing at a constant humidity level of 50%, slides were desiccated overnight and stored at −80°C. For peptide probing, array slides were transferred to 96-well microplates (TeleChem International, Inc., Sunnyvale, CA) and sandwiched with silicone gaskets. Prior to peptide addition, aldehyde sites were quenched with buffer B (20 mM HEPES, 100 mM KCl, 0.1% Tween-20, 5 mM DTT, pH 7.8) containing 1% bovine serum albumin (BSA) (w/v) for one hour at room temperature; moderate agitation was applied in a plate shaker (IKA, Germany) to displace glycerol from the surface area of protein sample spots. […] The arrays were subsequently washed once with 300 µL of buffer B and once with 300 µL of ddH2O. Residual water was removed by centrifugation; slides were stored under desiccation in the dark until analysis.
# (§2) Microarray slides were scanned at a resolution of 10 µm using a GenePix 4000B microarray scanner and analyzed using GenePix Pro v6.0 software (Molecular Devices, Sunnyvale, CA). To independently visualize protein spots irrespective of peptide binding, samples were printed simultaneously with 400 nM of Cyanine-5 (Cy5) labeled bovine serum albumin (BSA). […] Following spot layout identification via Cy5 labeled BSA, the mean fluorescence intensity of rhodamine for duplicate protein spots was quantified and normalized by subtracting the corresponding mean fluorescence intensity of thioredoxin. Normalized fluorescence values were then imported into MATLAB and KDs determined as previously described.
# [2] = target: T2, SH2 and PTB domains (Homo sapiens, UniProt O43639); settings: protein NCK2
# T2 construct: thioredoxin; made in house; host or cells: BL21(DE3)pLysS E. coli
# Experimental: as §1, §2
# [3] = target: T3, SH2 and PTB domains (Homo sapiens, UniProt O60880); settings: protein SH2D1A
# T3 construct: thioredoxin; made in house; host or cells: BL21(DE3)pLysS E. coli
# T3 sequence (O60880 1-128): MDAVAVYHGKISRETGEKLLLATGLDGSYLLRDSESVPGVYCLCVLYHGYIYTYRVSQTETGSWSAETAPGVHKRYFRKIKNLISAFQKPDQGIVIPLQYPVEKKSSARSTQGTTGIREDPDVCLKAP
# Experimental: as §1, §2
# [4] = target: T4, SH2 and PTB domains (Homo sapiens, UniProt P07947); settings: protein YES1
# T4 construct: thioredoxin; made in house; host or cells: BL21(DE3)pLysS E. coli
# Experimental: as §1, §2
# [5] = target: T5, SH2 and PTB domains (Homo sapiens, UniProt P16885)
# T5 construct: thioredoxin; made in house; host or cells: BL21(DE3)pLysS E. coli
# T5 sequence (P16885 1-1265): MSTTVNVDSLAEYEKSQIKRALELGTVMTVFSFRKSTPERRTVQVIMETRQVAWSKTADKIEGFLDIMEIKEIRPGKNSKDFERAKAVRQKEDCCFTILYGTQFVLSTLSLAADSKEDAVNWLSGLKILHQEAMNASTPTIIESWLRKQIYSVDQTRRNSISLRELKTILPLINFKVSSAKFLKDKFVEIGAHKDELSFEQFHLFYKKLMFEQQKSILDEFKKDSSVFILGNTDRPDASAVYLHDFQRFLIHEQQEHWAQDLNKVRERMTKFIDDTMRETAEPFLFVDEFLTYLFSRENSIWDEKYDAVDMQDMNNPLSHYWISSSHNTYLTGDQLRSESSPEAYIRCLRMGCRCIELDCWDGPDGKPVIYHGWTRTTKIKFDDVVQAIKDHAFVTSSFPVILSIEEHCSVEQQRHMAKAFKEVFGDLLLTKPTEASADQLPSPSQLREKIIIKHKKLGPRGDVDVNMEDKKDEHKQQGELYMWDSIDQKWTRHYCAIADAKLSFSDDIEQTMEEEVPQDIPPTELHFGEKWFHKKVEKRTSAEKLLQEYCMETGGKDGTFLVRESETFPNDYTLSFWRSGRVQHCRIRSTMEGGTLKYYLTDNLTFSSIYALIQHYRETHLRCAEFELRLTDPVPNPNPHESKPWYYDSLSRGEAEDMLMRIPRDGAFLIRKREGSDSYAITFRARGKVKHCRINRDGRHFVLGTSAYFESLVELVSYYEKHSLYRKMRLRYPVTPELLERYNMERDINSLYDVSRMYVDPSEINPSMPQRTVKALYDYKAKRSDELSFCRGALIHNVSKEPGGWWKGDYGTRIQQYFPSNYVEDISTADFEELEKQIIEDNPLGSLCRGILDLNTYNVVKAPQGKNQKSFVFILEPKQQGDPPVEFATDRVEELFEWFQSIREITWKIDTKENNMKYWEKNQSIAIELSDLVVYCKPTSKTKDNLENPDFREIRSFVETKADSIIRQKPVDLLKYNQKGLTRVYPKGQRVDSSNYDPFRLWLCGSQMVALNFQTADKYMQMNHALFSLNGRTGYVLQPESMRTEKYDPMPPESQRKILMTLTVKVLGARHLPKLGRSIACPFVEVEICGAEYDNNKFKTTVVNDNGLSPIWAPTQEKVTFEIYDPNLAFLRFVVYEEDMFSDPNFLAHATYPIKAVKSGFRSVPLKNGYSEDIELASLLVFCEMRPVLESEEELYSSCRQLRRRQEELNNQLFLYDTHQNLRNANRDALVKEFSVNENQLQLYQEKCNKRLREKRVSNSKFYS
# Experimental: as §1, §2
# [6] = target: T6, SH2 and PTB domains (Homo sapiens, UniProt P51451); settings: protein BLK
# T6 construct: thioredoxin; made in house; host or cells: BL21(DE3)pLysS E. coli
# Experimental: as §1, §2
# [7] = target: T7, SH2 and PTB domains (Homo sapiens, UniProt Q92569)
# T7 construct: thioredoxin; made in house; host or cells: BL21(DE3)pLysS E. coli
# Experimental: as §1, §2
# [8] = target: T8, SH2 and PTB domains (Homo sapiens, UniProt Q9BRG2); settings: protein SH2D3A
# T8 construct: thioredoxin; made in house; host or cells: BL21(DE3)pLysS E. coli
# Experimental: as §1, §2
# [9] = PM assay replicate # 39307, array fabrication # 39286
# [10] = PM assay replicate # 39337, array fabrication # 39329
# [11] = PM assay replicate # 39351, array fabrication # 39336
# [12] = PM assay replicate # 39352, array fabrication # 39336
# [13] = protein PLCG2-NC, PM assay replicate # 39337, array fabrication # 39329
# [14] = protein PIK3R3-NC, PM assay replicate # 39337, array fabrication # 39329
# [15] = PM assay replicate # 39336, array fabrication # 39329
# [16] = protein PLCG2-NC, PM assay replicate # 39336, array fabrication # 39329
# T8 sequence (Q9BRG2 whole entry, the tested form may be a part): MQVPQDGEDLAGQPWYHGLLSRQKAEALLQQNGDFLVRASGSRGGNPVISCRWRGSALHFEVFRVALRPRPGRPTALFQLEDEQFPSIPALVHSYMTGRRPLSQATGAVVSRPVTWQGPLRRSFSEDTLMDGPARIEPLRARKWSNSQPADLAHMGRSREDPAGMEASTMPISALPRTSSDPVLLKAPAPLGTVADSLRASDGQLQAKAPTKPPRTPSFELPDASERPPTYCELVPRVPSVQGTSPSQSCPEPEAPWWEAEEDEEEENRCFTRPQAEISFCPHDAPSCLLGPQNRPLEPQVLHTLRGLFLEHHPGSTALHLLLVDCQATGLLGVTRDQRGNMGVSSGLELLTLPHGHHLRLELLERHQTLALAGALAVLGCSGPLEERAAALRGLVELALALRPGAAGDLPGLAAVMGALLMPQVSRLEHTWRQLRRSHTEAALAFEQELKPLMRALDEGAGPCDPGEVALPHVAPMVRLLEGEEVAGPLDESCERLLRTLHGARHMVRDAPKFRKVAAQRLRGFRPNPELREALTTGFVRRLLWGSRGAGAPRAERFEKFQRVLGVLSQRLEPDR
# T6 sequence (P51451 whole entry, the tested form may be a part): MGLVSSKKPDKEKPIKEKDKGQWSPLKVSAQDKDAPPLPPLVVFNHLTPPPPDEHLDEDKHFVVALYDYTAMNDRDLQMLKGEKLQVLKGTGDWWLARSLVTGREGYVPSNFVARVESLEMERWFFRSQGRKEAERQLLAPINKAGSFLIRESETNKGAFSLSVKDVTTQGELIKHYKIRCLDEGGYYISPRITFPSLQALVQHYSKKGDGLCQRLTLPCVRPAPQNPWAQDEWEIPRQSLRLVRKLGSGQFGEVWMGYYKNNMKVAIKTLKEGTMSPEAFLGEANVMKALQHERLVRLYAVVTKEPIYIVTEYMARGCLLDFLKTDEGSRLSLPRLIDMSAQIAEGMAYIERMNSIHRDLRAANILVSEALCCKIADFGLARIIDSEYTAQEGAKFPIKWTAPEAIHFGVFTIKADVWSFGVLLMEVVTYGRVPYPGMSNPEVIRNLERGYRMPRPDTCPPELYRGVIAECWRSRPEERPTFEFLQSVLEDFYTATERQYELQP
# T4 sequence (P07947 whole entry, the tested form may be a part): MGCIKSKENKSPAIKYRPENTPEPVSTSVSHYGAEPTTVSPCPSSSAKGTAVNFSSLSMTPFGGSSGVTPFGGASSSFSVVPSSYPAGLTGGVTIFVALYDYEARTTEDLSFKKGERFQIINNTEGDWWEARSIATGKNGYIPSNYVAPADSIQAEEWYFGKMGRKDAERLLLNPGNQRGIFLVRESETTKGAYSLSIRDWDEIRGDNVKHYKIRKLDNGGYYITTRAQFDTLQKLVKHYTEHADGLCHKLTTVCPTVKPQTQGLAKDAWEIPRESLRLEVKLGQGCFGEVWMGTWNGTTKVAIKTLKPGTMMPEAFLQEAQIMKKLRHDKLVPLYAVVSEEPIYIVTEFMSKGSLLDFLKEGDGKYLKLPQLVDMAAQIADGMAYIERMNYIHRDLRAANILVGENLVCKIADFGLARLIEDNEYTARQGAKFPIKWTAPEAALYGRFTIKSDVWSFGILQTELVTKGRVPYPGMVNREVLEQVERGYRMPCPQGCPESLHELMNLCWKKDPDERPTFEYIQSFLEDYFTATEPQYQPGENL
# T1 sequence (O00459 whole entry, the tested form may be a part): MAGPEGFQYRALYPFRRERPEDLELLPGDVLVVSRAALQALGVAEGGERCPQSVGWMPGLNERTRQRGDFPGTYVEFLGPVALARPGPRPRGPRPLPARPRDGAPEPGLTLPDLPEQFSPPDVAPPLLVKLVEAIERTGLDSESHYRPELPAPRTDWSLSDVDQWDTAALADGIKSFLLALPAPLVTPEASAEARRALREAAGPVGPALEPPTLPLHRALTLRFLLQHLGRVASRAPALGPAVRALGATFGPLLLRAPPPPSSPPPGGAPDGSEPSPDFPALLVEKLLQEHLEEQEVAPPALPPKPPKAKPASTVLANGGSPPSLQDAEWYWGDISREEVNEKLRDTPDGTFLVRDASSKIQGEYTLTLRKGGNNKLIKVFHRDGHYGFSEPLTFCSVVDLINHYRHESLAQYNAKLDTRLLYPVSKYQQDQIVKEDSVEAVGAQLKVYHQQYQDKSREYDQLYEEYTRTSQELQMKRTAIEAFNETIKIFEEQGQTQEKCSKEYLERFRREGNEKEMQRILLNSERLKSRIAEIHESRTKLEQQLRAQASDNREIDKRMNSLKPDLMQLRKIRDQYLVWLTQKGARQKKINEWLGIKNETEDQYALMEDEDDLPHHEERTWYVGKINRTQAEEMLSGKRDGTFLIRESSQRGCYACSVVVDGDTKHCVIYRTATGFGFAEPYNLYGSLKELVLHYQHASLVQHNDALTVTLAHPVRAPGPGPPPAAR
# T2 sequence (O43639 whole entry, the tested form may be a part): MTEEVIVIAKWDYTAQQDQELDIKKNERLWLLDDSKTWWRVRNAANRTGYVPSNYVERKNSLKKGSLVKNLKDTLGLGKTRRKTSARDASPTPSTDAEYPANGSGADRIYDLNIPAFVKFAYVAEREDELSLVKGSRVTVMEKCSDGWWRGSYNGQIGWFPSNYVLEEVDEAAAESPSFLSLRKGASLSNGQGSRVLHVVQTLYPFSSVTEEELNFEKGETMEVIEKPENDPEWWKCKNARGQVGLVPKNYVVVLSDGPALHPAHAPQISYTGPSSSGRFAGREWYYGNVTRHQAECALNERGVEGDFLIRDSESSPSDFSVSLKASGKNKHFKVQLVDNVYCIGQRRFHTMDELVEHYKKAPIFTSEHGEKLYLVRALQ
structure (smiles),measurement,setting,value
CCN(CC)c1ccc2c(-c3ccc(C(=O)N[C@@H](CC(N)=O)C(=O)NCC(=O)N4CCC[C@H]4C(=O)N4CCC[C@H]4C(=O)N[C@@H](CCCCN)C(=O)N[C@@H](C)C(=O)N[C@@H](CCC(=O)O)C(=O)N[C@@H](CC(=O)O)C(=O)N[C@@H](CCC(=O)O)C(=O)N[C@@H](Cc4ccc(OP(=O)(O)O)cc4)C(=O)N[C@H](C(=O)N[C@@H](CC(N)=O)C(=O)N[C@@H](CCC(=O)O)C(=O)N4CCC[C@H]4C(=O)N[C@@H](CC(C)C)C(=O)N[C@@H](Cc4ccc(O)cc4)C(=O)N[C@@H](CC(C)C)C(=O)N[C@@H](CC(=O)O)C(=O)O)C(C)C)cc3C(=O)[O-])c3ccc(=[N+](CC)CC)cc-3oc2c1 [ErbB4 1202 (18-mer)] (HELM PEPTIDE1{[CCN(CC)c1ccc2c(-c3ccc(C(=O)[*:2])cc3C(=O)[O-])c3ccc(=[N+](CC)CC)cc-3oc2c1].N.G.P.P.K.A.E.D.E.[O=C([C@H](Cc1ccc(OP(=O)(O)O)cc1)N[*:1])[*:2]].V.N.E.P.L.Y.L.D}$$$$V2.0),Kd,"[1]; protein PIK3R2-NC, PM assay replicate # 39337",0.65 µM
same,Kd,[2]; [9],10.06 µM
same,Kd,[3]; [9],30.90 µM
same,Kd,[4]; [9],0.35 µM
same,Kd,[4]; [10],1.44 µM
same,Kd,[4]; [11],1.61 µM
same,Kd,[4]; [12],0.42 µM
same,Kd,[5]; [13],1.53 µM
same,Kd,"[5]; protein PLCG2-NC, PM assay replicate # 39351, array fabrication # 39336",0.41 µM
same,Kd,"[5]; protein PLCG2-NC, PM assay replicate # 39352, array fabrication # 39336",0.61 µM
same,Kd,[6]; [9],0.45 µM
same,Kd,[6]; [10],7.84 µM
same,Kd,[6]; [11],2.29 µM
same,Kd,[6]; [12],2.39 µM
same,Kd,[7]; [14],1.18 µM
same,Kd,"[7]; protein PIK3R3-NC, PM assay replicate # 39352, array fabrication # 39336",1.72 µM
same,Kd,[8]; [9],1.00 µM
CC(C)C[C@H](NC(=O)[C@@H]1CCCN1)C(=O)N[C@@H](CCC(N)=O)C(=O)N[C@@H](CCCNC(=N)N)C(=O)N[C@@H](Cc1ccc(OP(=O)(O)O)cc1)C(=O)N[C@@H](CO)C(=O)N[C@@H](CCC(=O)O)C(=O)N[C@@H](CC(=O)O)C(=O)N1CCC[C@H]1C(=O)N[C@H](C(=O)N[C@H](C(=O)N1CCC[C@H]1C(=O)N[C@@H](CC(=O)O)C(=O)O)C(C)C)[C@@H](C)O [ErbB2 pY1112] (HELM PEPTIDE1{P.L.Q.R.[O=C([C@H](Cc1ccc(OP(=O)(O)O)cc1)N[*:1])[*:2]].S.E.D.P.T.V.P.D}$$$$V2.0),Kd,"[3]; PM assay replicate # 39331, array fabrication # 39329",1.72 µM
same,Kd,[3]; [15],9.67 µM
same,Kd,"[5]; protein PLCG2-NC, PM assay replicate # 39331, array fabrication # 39329",5.53 µM
same,Kd,[5]; [16],0.93 µM
CC(C)C[C@H](NC(=O)[C@@H]1CCCN1C(=O)[C@H](C)NC(=O)[C@@H](NC(=O)[C@H](Cc1ccc(OP(=O)(O)O)cc1)NC(=O)CNC(=O)[C@H](CC(=O)O)NC(=O)[C@@H](NC(=O)[C@@H](N)CCC(=O)O)[C@@H](C)O)C(C)C)C(=O)N[C@H](C(=O)N[C@@H](CS)C(=O)N[C@@H](CO)C(=O)N[C@@H](CC(=O)O)C(=O)O)[C@@H](C)O [ErbB2 pY1127],Kd,"[1]; protein PIK3R2-N, PM assay replicate # 39336",0.04 µM
same,Kd,"[1]; protein PIK3R2-N, PM assay replicate # 39337",0.15 µM
same,Kd,[2]; [15],1.56 µM
same,Kd,[2]; [10],0.46 µM
same,Kd,[4]; [15],0.0053 µM
same,Kd,[4]; [10],0.0651 µM
same,Kd,"[5]; protein PLCG2-N, PM assay replicate # 39337, array fabrication # 39329",4.16 µM
same,Kd,[5]; [16],1.60 µM
same,Kd,[5]; [13],0.58 µM
same,Kd,[6]; [15],3.20 µM
same,Kd,[6]; [10],0.46 µM
same,Kd,"[6]; PM assay replicate # 39603, array fabrication # 39392",2.00 µM
same,Kd,"[7]; protein PIK3R3-C, PM assay replicate # 39336, array fabrication # 39329",1.21 µM
same,Kd,"[7]; protein PIK3R3-C, PM assay replicate # 39337, array fabrication # 39329",2.04 µM
same,Kd,"[7]; protein PIK3R3-N, PM assay replicate # 39336, array fabrication # 39329",0.00698 µM
same,Kd,"[7]; protein PIK3R3-N, PM assay replicate # 39337, array fabrication # 39329",0.0758 µM
same,Kd,"[7]; protein PIK3R3-NC, PM assay replicate # 39336, array fabrication # 39329",0.10 µM
same,Kd,[7]; [14],0.0151 µM
same,Kd,"[7]; protein PIK3R3-NC, PM assay replicate # 39603, array fabrication # 39392",0.05 µM
same,Kd,[8]; [15],0.15 µM
same,Kd,[8]; [10],1.15 µM
